Experimental data reported in patent US20210221791A1, “COMPOUNDS” (UNIVERSITETET I OSLO, priority 2016, published 2021).
Where two headings read alike, the source gives them in different places.

Assays:
[1] = zinc-binding ability; known/prior art value; cited from earlier work
[2] = molecular target: VIM-2 (Escherichia coli, UniProt Q5U7L7); assay type: biochemical; conditions: purified VIM-2, PD-10 column; EDTA at 100 μM
Experimental: The eluent used was Chelex-treated HEPES 50 mM buffer, pH 7.5. […] In all experiments, 16 aliquots of 250 μL were taken from the PD-10 column runsout and enzyme activity was analysed. Enzyme activity was measured by adding Nitrocefin as a reporter substrate (final concentration of 50 μM).
To investigate if more extreme time-dependent and concentration-dependent conditions could restore enzyme activity, aliquots having final concentrations of 30 nM column-treated enzyme and 1000 μM Zn^2+ on ice and at room temperature over prolonged time.

[3] = tested on: K. pneumoniae K66-45; assay type: cell-based; conditions: inhibitor 25 mg/L
Experimental: After plating and grown overnight at 37° C., only single colonies, ignoring any touching the edges of the plate, were counted.
10^9 CFU K66-45 (Mueller-Hinton broth, no selection) was plated and grown overnight, 37° C. Only single colonies, ignoring any touching the edges of the plate, were counted.

[4] = tested on: P. aeruginosa K34-7 (VIM-2); assay: Microbroth dilution MIC of carbapenem with/without inhibitor; assay type: cell-based
Experimental: (§1) • Plate bacterial strain(s) on appropriate media: • Gram-negative bacteria with ESBLs or carbapenemases: green agar plates with 100 mg/L ampicillin • Gram-negative bacteria without β-lactamases: green agar plates • Gram-positive bacteria (Staphylococci and Enterococci): blood agar plates • Incubate o.n. at 37° C.
(§2) (Should be used within 15 min of preparation). • Dilute the 0.5 McFarland suspension 1:100 into MH broth. […] Plate 10 μl of the dilution on MH agar plates (×2). Incubate o.n. at 37° C., count the colonies and calculate the final CFU/ml inoculum in the plate by multiplying the average number of colonies with 10000 and divide by 2. The final inoculum should be between 3-7×10^5 CFU/ml. • Add 50 μl of the prepared bacterial suspension to each well in the microtiter plate except negative growth control.
(§3) • Calculate the desired concentration-range and volume of the compounds/antibiotics in the assay. […] Dilute the stock solution in MH broth. Make subsequent 2-fold dilutions in MH broth of the desired concentrations if a concentration range is to be tested (remember the extra dilution factor in the assay plate). Always include extra volume for pipetting. Take into consideration stock solutions that are made in buffers that have an effect on bacterial growth (e.g. DMSO).

[5] = tested on: resistant gram-negative MBL-based bacteria; assay: MICx: lowest adjuvant concentration giving carbapenem MIC ≤2 mg/L; assay type: cell-based; conditions: for adjuvant effect at an inhibitor concentration of 25 mg/L: meropenem, K34-7 and K66-45
[6] = tested on: Klebsiella pneumoniae strain 50752501 harbouring NDM-1; assay: In vivo infection study in neutropenic mice; set-up: species or system Klebsiella pneumoniae; host NMRI mice; conditions: meropenem alone 33 mg/kg
Experimental: The purpose of this study was to investigate the synergy between a typical example of the present invention and a state of art carbapenem in a clinically relevant multiresistant Gram-negative bacterial strain harboring a metallo-β-lactamase in the treatment of live mice infected with the bacterial strain.
The mice were rendered neutropenic by injecting 0.5 ml cyclophosphamide solution intraperitoneally 4 days (approximately 200 mg/kg) and 1 day (approximately 100 mg/kg) prior to inoculation.
Fresh overnight colonies from a 5% Horse Blood Agar plate were suspended and diluted in sterile saline to approximately and 10^7 CFU/ml. Mice were inoculated intraperitoneally with 0.5 ml of the suspension. Approximately ½ hr prior to inoculation, mice were treated orally with 45 μl neurophen (20 mg ibuprofen/ml corresponding to approximately 30 mg/kg) as a pain relief.
Mice were treated subcutaneously in the neck region with.
Colony counts were determined from blood and peritoneal fluid at 1 and 5 hrs post inoculation. […] The mice were sacrificed immediately after blood sampling and a total of 2 ml sterile saline was injected i.p. and the abdomen gently massaged before it was opened and fluid sampled with a pipette. Each sample was then 10 fold serial diluted in saline and 20-μl spots, ranging from undiluted to a 10^6 dilution, were applied on agar plates in duplicates. […] All agar plates were incubated 18-22 hrs at 35° C. in ambient air.

[7] = tested on: K. pneumoniae K66-45 (NDM-1); assay: Microbroth dilution MIC of carbapenem with/without inhibitor; assay type: cell-based
Experimental: as §1, §2, §3

[8] = tested on: resistant clinical isolate of Klebsiella pneumoniae harboring NDM-1; assay: Time-kill study with meropenem; assay type: cell-based; conditions: 4 mg/L meropenem alone; grows beyond starting CFU count
Experimental: Mueller-Hinton broth (MHB) was warmed from fridge temperature cold. […] A sample of Example 26 was dissolved in DMSO.
The 96-well plates were prepared using a multi-channel pipette, adding […] PBS to columns 2-9, or the required number of dilutions needed in the experiment. Each Inoculum was prepared by picking a single colony from the fresh plate that was disperged into 1 mL MHB, the loop was agitated to ensure all the colony comes off the loop. The tube was Vortex mixed, and a 100 μL aliquot was taken from the tube into 9.9 mL of MHB into the media bottle. […] The procedure was repeated for as many samples needed in the study. Aliquots of 5 mL inoculum were transferred to as many media bottles as needed, e.g. 4 mg/L MEM, 4 mg/L MEM+50 μM test substance, 4 mg/L MEM+100 μM test substance. Then […] aliquots were taken from each culture and added to Column 1 on the 96 well plate, e.g. culture 1: 50 μl into A1, […] into B1 etc. for time point 0 h. Then […] MEM was added into each bottle, followed by the required amount of test substance. The bottles were mixed gently to avoid formation of bubbles, and incubated in a secondary container at 37° C. at 180 rpm. Finally, serial dilutions were performed using multi-channel pipette taking 30 μL for column 1, adding to column 2, mixing well, repeating from column 2 to 3 with clean pipette tips.

With c1ccc(CNCc2ccccn2)nc1 [DPA, dipicoylamine] as the molecule, how does the pKd [1] read?
The pKd was < 8.

Which “irreversibility of VIM-2 inhibition” value [2] does the source give for O=C(O)CN(CCN(CC(=O)O)CC(=O)O)CC(=O)O [EDTA, ethylenediaminetetra-acetic acid, reference compound] here?
The value was “did not inhibit VIM-2 irreversibly”.

What does the source list for CN(C[C@H](O)[C@@H](O)[C@H](O)[C@H](O)CO)C(=O)Cc1ccc(NC(=O)CN(CCN(Cc2ccccn2)Cc2ccccn2)Cc2ccccn2)cc1 [Example 25, 2-(4-(2-((2-(bis(pyridin-2-ylmethyl)amino)ethyl)(pyridin-2-ylmethyl)amino)acetamido)phenyl)-N-methyl-N-(2,3,4,5,6-pentahydroxyhexyl)acetamide]?
RF - no of colonies ([3]; MEM 2 mg/L): nc (n.c. = no colonies); RF - no of colonies ([3]; MEM 4 mg/L): nc (n.c. = no colonies); RF - no of colonies ([3]; MEM 8 mg/L): nc (n.c. = no colonies)

Which MIC of meropenem ([4]; P. aeruginosa K34-7 (VIM-2), inhibitor 50 μM) does the source give for OC1O[C@H](Cn2cc(CN(CCN(Cc3ccccn3)Cc3ccccn3)Cc3ccccn3)nn2)[C@H](O)[C@H](O)[C@H]1O (stereo partly shown) [Example 91] here?
Its MIC of meropenem is 1.

Which “adjuvant concentration range at which efficient” value [5] does the source give for O=C(NCCc1ccc(-n2cc(CN(Cc3ccccn3)Cc3ccccn3)nn2)cc1)[C@H]1O[C@H](O)[C@H](O)[C@@H](O)[C@H]1O [Example 101, (2S,3R,4S,5R,6S)—N-(4-(4-((Bis(pyridin-2-ylmethyl)amino)methyl)-1H-1,2,3-triazol-1-yl)phenethyl)-3,4,5,6-tetrahydroxytetrahydro-2H-pyran-2-carboxamide] here?
The value was 100 to 150 µM.

What about the “adjuvant effect at an inhibitor concentration of 25 mg/L” value [5] of the same molecule?
Its value is “less activity as an adjuvant”.

With O=C(Cc1ccc(-n2cc(CN(Cc3ccccn3)Cc3ccccn3)nn2)cc1)N[C@@H](Cc1cccc(C(=O)O)c1)B(O)O [Example 157, (R)-3-(2-(2-(4-(4-((bis(pyridin-2-ylmethyl)amino)methyl)-1H-1,2,3-triazol-1-yl)phenyl)acetamido)-2-boronoethyl)benzoic acid] as the molecule, how does the “adjuvant effect at an inhibitor concentration of 25 mg/L” value [5] read?
The value was “less activity as an adjuvant”.

With COC(=O)c1ccc(CN(Cc2ccccn2)Cc2ccccn2)s1 [Example 180, Methyl 5-((bis(pyridin-2-ylmethyl)amino)methyl)thiophene-2-carboxylate] as the molecule, how does the “adjuvant effect at an inhibitor concentration of 25 mg/L” value [5] read?
Its value is “completely abolishes the adjuvant effect”.

With CN(C[C@H](O)[C@@H](O)[C@H](O)[C@H](O)CO)C(=O)c1ccc(CN(Cc2ccccn2)Cc2ccccn2)s1 [Example 182, 5-((bis(pyridin-2-ylmethyl)amino)methyl)-N-methyl-N-((2S,3R,4R,5R)-2,3,4,5,6-pentahydroxyhexyl)thiophene-2-carboxamide] as the molecule, how does the “adjuvant effect at an inhibitor concentration of 25 mg/L” value [5] read?
Its value is “completely abolishes the adjuvant effect”.

With CN(C[C@H](O)[C@@H](O)[C@H](O)[C@H](O)CO)C(=O)c1ccc(CN(Cc2ccccc2)Cc2ccccc2)nc1 [Example 185, 6-((dibenzylamino)methyl)-N-methyl-N-((2S,3R,4R,5R)-2,3,4,5,6-pentahydroxyhexyl)nicotinamide] as the molecule, how does the “adjuvant effect at an inhibitor concentration of 25 mg/L” value [5] read?
Its value is “completely abolishes the adjuvant effect”.

With CN(C[C@H](O)[C@@H](O)[C@H](O)[C@H](O)CO)C(=O)c1ccc(CN(Cc2ccccc2)Cc2ccccn2)nc1 [Example 187, 6-((benzyl(pyridin-2-ylmethyl)amino)methyl)-N-methyl-N-((2S,3R,4R,5R)-2,3,4,5,6-pentahydroxyhexyl)nicotinamide] as the molecule, how does the “adjuvant effect at an inhibitor concentration of 25 mg/L” value [5] read?
Its value is “completely abolishes the adjuvant effect”.

With COC(=O)[C@@H](C)NC(=O)[C@@H](C)NC(=O)Cn1cc(CN(Cc2ccccn2)Cc2ccccn2)nn1 [Example 194, Methyl (2-(4-((bis(pyridin-2-ylmethyl)amino)methyl)1H-1,2,3-triazol-1-yl)acetyl)-D-alanyl-D-alaninate, reference compound] as the molecule, how does the “adjuvant concentration range at which efficient” value [5] read?
The value was 100 to 150 µM.

For c1ccc(CN(Cc2ccccn2)Cc2ccccn2)nc1 [TPA, N,N,N-tris(2-pyridylmethyl) amine], which pKd [1] is on record?
The pKd was “about 12”.

With c1ccc(CN(CCN(Cc2ccccn2)Cc2ccccn2)Cc2ccccn2)nc1 [TPEN, N,N,N′,N′-tetrakis(2-pyridylmethyl) ethylenediamine, reference compound] as the molecule, how does the “irreversibility of VIM-2 inhibition” value [2] read?
Its value is “irreversibly inhibited”.

For C[C@@H](O)[C@H]1C(=O)N2C(C(=O)O)=C(S[C@@H]3CN[C@H](C(=O)N(C)C)C3)[C@H](C)[C@H]12 [meropenem, reference compound], which “lower CFU levels compared to vehicle treatment” value ([6]; blood) is on record?
Its value is 2.5 log10.

And the “lower CFU levels compared to vehicle treatment” value ([6]; peritoneal fluid)?
Its value is 2.2 log10.

What about the MIC ([7]; Klebsiella pneumoniae, read-out: MIC of MEM in the absence of Example 26, K. pneumoniae K66-45) of the same molecule?
The MIC was > 32 µg/mL.

What about the “MIC Value in K66-45 (MIC of carbapenem)” value ([7]; carbapenem alone, K. pneumoniae NDM-1) of the same molecule?
The value was 32 to 64 µg/mL.

And the “MIC value in K34-7 (MIC of carbapenem)” value ([4]; carbapenem alone, P. aeruginosa VIM-2)?
Its value is 32 to 64 µg/mL.

What about the “time after which CFU starts to increase” value [8] of the same molecule?
Its value is “about 5 hours”.
